From ChEMBL document CHEMBL1157356, “Discovery of pyrrolopyridine-pyridone based inhibitors of Met kinase: synthesis, X-ray crystallographic analysis, and biological activities” (J Med Chem, 2008)

Experiments:
[1] = biological target: Hepatocyte growth factor receptor (Homo sapiens, UniProt P08581); assay: Inhibition of MET
[2] = Antiproliferative activity against human GTL16 cells after 72 hrs by MTS assay; format: functional, cell-based; details: GTL 16, 72 h
NCI-N87 = assay: Antiproliferative activity against human N87 cells after 72 hrs by MTS assay; format: functional, cell-based; details: NCI-N87, 72 h
[3] = biological target: T1, Receptor-type tyrosine-protein kinase FLT3 (Homo sapiens, UniProt P36888); assay: Inhibition of Flt3
T1 sequence (P36888 whole entry): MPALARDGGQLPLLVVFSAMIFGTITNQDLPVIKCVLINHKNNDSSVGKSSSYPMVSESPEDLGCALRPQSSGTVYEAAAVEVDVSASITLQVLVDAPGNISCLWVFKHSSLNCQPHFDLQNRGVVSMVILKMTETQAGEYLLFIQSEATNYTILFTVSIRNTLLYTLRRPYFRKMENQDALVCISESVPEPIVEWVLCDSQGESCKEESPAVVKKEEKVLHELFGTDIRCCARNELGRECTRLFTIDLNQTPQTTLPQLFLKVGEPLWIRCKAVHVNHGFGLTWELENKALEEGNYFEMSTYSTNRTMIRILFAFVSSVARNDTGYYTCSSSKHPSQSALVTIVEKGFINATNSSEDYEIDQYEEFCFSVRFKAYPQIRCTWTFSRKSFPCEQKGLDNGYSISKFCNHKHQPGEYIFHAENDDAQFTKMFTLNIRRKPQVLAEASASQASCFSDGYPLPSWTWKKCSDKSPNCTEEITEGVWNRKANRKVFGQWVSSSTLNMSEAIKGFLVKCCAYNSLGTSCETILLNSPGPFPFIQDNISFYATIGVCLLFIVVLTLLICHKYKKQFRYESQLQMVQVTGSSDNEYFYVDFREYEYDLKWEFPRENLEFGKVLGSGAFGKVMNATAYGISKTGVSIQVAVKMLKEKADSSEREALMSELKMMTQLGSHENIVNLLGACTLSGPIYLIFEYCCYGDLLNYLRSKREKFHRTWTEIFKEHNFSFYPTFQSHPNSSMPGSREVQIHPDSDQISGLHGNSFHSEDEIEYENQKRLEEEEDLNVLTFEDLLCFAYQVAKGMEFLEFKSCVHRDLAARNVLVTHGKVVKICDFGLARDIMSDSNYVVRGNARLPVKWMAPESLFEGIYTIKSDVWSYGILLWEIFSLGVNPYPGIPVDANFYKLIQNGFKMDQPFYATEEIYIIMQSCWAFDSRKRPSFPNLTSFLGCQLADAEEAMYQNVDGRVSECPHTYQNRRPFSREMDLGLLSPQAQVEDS

[4] = biological target: Vascular endothelial growth factor receptor 2 (Homo sapiens, UniProt P35968); assay: Inhibition of VEGFR2
[5] = biological target: Mast/stem cell growth factor receptor Kit (Homo sapiens, UniProt P10721); assay: Inhibition of c-Kit
Chain of Mast/stem cell growth factor receptor Kit (P10721 whole entry): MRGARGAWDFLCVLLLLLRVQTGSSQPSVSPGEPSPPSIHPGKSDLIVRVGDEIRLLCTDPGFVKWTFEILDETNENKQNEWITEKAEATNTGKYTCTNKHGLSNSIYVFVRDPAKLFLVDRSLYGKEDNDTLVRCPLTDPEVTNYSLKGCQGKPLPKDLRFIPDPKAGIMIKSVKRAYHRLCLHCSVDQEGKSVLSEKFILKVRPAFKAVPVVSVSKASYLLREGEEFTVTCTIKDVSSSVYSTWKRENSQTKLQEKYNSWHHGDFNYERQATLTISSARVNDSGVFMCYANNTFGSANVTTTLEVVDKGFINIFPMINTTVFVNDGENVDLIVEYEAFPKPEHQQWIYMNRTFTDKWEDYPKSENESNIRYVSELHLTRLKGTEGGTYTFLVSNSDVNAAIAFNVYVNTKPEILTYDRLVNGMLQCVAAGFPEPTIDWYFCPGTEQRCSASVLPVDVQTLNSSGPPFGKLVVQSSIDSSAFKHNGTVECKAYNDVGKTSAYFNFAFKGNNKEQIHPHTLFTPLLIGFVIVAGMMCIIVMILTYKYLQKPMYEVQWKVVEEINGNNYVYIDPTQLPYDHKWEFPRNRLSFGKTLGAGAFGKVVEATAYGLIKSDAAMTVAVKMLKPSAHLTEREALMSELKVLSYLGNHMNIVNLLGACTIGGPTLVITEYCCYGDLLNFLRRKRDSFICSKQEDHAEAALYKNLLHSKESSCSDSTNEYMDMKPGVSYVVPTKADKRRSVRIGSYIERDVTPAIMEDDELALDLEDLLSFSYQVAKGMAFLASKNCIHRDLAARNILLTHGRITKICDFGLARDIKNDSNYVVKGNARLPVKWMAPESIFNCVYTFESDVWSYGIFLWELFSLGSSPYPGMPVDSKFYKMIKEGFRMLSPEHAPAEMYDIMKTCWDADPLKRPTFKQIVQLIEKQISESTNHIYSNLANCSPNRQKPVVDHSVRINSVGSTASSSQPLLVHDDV

[6] = biological target: Cyclin-dependent kinase 2 (Homo sapiens, UniProt P24941); assay: Inhibition of CDK2/cyclin E
[7] = biological target: Protein kinase C alpha type (Homo sapiens, UniProt P17252); assay: Inhibition of PKCalpha
[8] = Inhibition of PKA
[9] = biological target: Insulin-like growth factor 1 receptor (Homo sapiens, UniProt P08069); assay: Inhibition of IGF1R
Insulin receptor = Insulin receptor (Homo sapiens, UniProt P06213); assay: Inhibition of InsR
Chain of Insulin receptor (P06213 28-758 limits assumed): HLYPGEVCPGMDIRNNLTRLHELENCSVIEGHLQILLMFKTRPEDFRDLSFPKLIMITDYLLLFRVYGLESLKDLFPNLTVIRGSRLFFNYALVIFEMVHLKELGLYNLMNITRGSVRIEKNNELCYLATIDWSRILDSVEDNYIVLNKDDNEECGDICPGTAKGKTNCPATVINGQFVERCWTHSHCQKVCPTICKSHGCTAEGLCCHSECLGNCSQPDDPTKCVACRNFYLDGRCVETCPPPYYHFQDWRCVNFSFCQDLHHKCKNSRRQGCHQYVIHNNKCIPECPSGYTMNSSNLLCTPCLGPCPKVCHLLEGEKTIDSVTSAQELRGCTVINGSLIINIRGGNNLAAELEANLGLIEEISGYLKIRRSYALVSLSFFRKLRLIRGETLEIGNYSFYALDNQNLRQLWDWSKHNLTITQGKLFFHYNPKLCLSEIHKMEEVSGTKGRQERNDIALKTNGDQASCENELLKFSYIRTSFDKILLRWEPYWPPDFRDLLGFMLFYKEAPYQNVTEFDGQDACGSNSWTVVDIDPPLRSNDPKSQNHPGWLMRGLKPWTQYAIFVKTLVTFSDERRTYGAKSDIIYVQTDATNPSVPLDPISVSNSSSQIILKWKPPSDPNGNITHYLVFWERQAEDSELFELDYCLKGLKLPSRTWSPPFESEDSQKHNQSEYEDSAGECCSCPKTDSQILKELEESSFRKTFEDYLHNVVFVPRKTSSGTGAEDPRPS
Chain of Insulin receptor (P06213 763-1382 limits assumed): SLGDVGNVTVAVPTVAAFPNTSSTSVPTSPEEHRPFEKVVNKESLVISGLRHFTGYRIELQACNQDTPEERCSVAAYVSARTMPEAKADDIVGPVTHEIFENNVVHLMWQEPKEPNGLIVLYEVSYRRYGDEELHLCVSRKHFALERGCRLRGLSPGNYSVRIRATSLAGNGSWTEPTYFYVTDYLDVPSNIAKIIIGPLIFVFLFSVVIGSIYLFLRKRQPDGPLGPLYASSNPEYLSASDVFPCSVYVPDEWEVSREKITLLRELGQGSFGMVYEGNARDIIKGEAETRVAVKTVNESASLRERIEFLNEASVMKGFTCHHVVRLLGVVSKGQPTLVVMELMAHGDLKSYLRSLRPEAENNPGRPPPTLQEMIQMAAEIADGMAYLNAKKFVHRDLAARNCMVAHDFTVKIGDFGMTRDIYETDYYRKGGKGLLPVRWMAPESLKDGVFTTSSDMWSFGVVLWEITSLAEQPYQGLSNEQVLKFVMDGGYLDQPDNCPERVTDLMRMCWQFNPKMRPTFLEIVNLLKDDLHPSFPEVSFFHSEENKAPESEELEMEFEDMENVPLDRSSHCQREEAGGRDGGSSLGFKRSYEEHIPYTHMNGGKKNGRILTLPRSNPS

[10] = biological target: MAP kinase-activated protein kinase 2 (Homo sapiens, UniProt P49137); assay: Inhibition of MK2
Chain of MAP kinase-activated protein kinase 2 (P49137 whole entry): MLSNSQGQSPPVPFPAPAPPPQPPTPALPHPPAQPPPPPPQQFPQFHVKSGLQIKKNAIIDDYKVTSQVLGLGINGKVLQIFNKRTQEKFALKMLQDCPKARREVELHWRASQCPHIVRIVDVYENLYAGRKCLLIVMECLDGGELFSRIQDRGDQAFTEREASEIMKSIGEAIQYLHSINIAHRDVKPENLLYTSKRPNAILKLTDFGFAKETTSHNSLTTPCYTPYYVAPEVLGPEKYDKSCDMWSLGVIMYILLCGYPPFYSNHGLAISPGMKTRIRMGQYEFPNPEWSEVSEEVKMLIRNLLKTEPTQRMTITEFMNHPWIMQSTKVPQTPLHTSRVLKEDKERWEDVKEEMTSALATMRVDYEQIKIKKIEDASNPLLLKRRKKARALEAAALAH

Liver microsomes = assay: Metabolic stability in human liver microsomes assessed as metabolic rate per mg of protein at 3 uM; format: ADME, Microsome
[11] = Metabolic stability in mouse liver microsomes assessed as metabolic rate per mg of protein at 3 uM; format: ADME, Microsome
[12] = AUC (0 to 24 hrs) in BALB/c mouse at 5 mg/kg, iv; format: ADME, organism-based; design: time < 24 hr, dose 5 mg/kg, route intravenous; details: plasma
[13] = Half life in BALB/c mouse at 5 mg/kg, iv; format: ADME, organism-based; design: dose 5 mg/kg, route intravenous; details: in vivo
[14] = Mean residence time in BALB/c mouse at 5 mg/kg, iv; format: ADME, organism-based; design: dose 5 mg/kg, route intravenous; details: in vivo
[15] = Clearance in BALB/c mouse at 5 mg/kg, iv; format: ADME, organism-based; design: dose 5 mg/kg, route intravenous; details: in vivo
[16] = Volume of distribution at steady state in BALB/c mouse at 5 mg/kg, iv; format: ADME, organism-based; design: dose 5 mg/kg, route intravenous; details: in vivo, read-out: Vdss
[17] = Cmax in BALB/c mouse at 10 mg/kg, po; format: ADME, organism-based; design: dose 10 mg/kg, route oral; details: in vivo
[18] = Tmax in BALB/c mouse at 10 mg/kg, po; format: ADME, organism-based; design: dose 10 mg/kg, route oral; details: in vivo
[19] = AUC (0 to 24 hrs) in BALB/c mouse at 10 mg/kg, po; format: ADME, organism-based; design: time < 24 hr, dose 10 mg/kg, route oral; details: plasma
[20] = Half life in BALB/c mouse at 10 mg/kg, po; format: ADME, organism-based; design: dose 10 mg/kg, route oral; details: in vivo
[21] = Mean residence time in BALB/c mouse at 10 mg/kg, po; format: ADME, organism-based; design: dose 10 mg/kg, route oral; details: in vivo
[22] = Oral bioavailability in BALB/c mouse at 10 mg/kg, po; format: ADME, organism-based; details: in vivo
Serum [23] = assay: Protein binding in human serum at 10 uM by equilibrium dialysis method; format: ADME, cell-free
Serum [24] = assay: Protein binding in mouse serum at 10 uM by equilibrium dialysis method; format: ADME, cell-free
[25] = Antitumor activity against human GTL16 cells xenografted po dosed BALB/c mouse administered once daily 14 days after tumor implantation; format: functional; details: GTL 16, po, 336 h, read-out: MED
[26] = Toxicity in human GTL16 cells xenografted BALB/c mouse assessed as maximum tolerated dose at 100 mg/kg, po qd administered 14 days after tumor implantation; format: organism-based; design: dose 100 mg/kg, route oral; details: in vivo
[27] = Antitumor activity against human GTL16 cells xenografted BALB/c mouse assessed as induction of complete tumor stasis at 25 mg/kg, po qd administered 14 days after tumor implantation; format: functional; details: GTL 16, 336 h, read-out: TGI
[28] = Antitumor activity against human GTL16 cells xenografted BALB/c mouse assessed as induction of tumor regression at 50 mg/kg, po qd administered 14 days after tumor implantation; format: functional; details: GTL 16, 336 h, read-out: TGI
[29] = biological target: Tyrosine-protein kinase Lck (Homo sapiens, UniProt P06239)
[30] = Antitumor activity against human GTL16 cells xenografted BALB/c mouse assessed as at 12.5 mg/kg, po qd administered 14 days after tumor implantation; details: GTL 16, po, 336 h, read-out: TGI

Chain of Hepatocyte growth factor receptor (P08581 whole entry): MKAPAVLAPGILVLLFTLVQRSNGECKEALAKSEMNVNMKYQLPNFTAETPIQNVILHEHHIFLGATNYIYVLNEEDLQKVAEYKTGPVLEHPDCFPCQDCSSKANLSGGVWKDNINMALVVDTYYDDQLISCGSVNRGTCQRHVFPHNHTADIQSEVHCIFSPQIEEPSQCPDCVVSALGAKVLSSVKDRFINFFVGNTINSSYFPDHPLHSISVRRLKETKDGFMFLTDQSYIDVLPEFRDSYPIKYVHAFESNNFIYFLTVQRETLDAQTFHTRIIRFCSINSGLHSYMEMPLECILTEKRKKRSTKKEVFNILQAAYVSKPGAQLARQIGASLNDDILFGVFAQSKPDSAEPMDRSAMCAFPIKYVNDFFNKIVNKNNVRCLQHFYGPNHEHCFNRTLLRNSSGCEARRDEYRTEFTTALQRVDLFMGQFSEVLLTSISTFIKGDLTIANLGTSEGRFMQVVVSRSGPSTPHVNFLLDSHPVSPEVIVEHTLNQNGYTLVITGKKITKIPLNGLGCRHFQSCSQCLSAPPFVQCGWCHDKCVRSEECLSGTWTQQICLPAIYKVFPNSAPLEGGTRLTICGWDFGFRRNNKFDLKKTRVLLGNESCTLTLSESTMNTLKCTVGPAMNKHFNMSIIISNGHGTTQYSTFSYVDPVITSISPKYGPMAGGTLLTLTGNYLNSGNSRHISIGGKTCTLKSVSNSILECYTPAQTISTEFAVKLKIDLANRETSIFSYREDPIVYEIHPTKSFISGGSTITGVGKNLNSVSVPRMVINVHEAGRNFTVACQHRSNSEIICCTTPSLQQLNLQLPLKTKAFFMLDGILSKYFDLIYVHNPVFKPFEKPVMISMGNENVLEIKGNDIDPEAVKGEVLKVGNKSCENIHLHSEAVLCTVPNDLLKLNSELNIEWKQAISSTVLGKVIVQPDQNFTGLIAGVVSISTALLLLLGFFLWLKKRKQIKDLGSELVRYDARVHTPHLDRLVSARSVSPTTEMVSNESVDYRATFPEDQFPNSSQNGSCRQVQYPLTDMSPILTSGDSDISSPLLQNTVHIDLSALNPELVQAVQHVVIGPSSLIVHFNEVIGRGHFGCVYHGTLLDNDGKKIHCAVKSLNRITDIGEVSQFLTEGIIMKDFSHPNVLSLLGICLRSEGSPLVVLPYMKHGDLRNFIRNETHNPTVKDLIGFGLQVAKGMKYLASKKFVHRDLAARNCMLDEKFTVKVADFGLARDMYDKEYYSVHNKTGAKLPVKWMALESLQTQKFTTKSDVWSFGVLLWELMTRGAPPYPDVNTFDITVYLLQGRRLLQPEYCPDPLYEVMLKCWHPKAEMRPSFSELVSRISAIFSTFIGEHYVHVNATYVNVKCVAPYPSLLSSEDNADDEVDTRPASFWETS

O=C(Nc1ccc(Oc2ccnc3[nH]ccc23)c(F)c1)c1cocc(-c2ccc(F)cc2)c1=O
IC50 [1]: 1.4 µM | IC50 [2]: > 10 µM

O=C(Nc1ccc(Oc2ccnc3[nH]ccc23)c(F)c1)c1cccn(-c2ccccc2)c1=O
IC50 [1]: 0.0019 µM | IC50 [2]: 0.14 µM | IC50 (NCI-N87): > 5 µM

NC(=O)c1ccc(-n2cccc(C(=O)Nc3ccc(Oc4ccnc5[nH]ccc45)c(F)c3)c2=O)cc1
IC50 [1]: 1 µM | IC50 [2]: > 5 µM

CC(C)CCn1cccc(C(=O)Nc2ccc(Oc3ccnc4[nH]ccc34)c(F)c2)c1=O
IC50 [1]: 0.03 µM | IC50 [2]: 3.7 µM | IC50 (NCI-N87): > 5 µM

O=C(Nc1ccc(Oc2ccnc3[nH]ccc23)c(F)c1)c1cccn(Cc2ccc(F)cc2)c1=O
IC50 [1]: 0.0082 µM | IC50 [2]: 2.1 µM | IC50 (NCI-N87): > 5 µM

O=C(Nc1ccc(Oc2ccnc3[nH]ccc23)c(F)c1)c1cccn(-c2ccccn2)c1=O
IC50 [1]: 0.01 µM | IC50 [2]: 0.97 µM | IC50 (NCI-N87): > 5 µM

O=C(Nc1ccc(Oc2ccnc3[nH]ccc23)c(F)c1)c1cncc(-c2ccc(F)cc2)c1O
IC50 [1]: 0.0028 µM | IC50 [2]: 0.07 µM | IC50 (NCI-N87): 1.24 µM

Cn1cc(C(=O)Nc2ccc(Oc3ccnc4[nH]ccc34)c(F)c2)c(=O)c(-c2ccc(F)cc2)c1
IC50 [1]: 0.0031 µM | IC50 [2]: 0.15 µM | IC50 (NCI-N87): 2.62 µM

O=C(Nc1ccc(Oc2ccnc3[nH]ccc23)c(F)c1)c1cn(C2CC2)cc(-c2ccc(F)cc2)c1=O
IC50 [1]: 0.0034 µM | IC50 [2]: 0.06 µM | IC50 (NCI-N87): > 5 µM

O=C(Nc1ccc(Oc2ccnc3[nH]ccc23)c(F)c1)c1cccc(-c2ccccc2)[n+]1[O-]
IC50 [1]: 0.0013 µM | IC50 [2]: 0.04 µM | IC50 (NCI-N87): > 5 µM

O=C(Nc1ccc(Oc2ccnc3[nH]ccc23)c(F)c1)c1cccc(-c2ccc(F)cc2)[n+]1[O-]
IC50 [1]: 0.0018 µM | IC50 [2]: 0.04 µM | IC50 (NCI-N87): 4.9 µM

COc1ccc(-n2cc(C(=O)Nc3ccc(Oc4ccnc5[nH]ccc45)c(F)c3)c(=O)c(-c3ccc(F)cc3)c2)cc1F
IC50 [1]: 0.005 µM | IC50 [2]: 0.2 µM | IC50 (NCI-N87): > 5 µM

O=C(Nc1ccc(Oc2ccnc3[nH]ccc23)c(F)c1)c1cn(-c2ccc(Cl)c(F)c2)cc(-c2ccc(F)cc2)c1=O
IC50 [1]: 0.0023 µM | IC50 [2]: 0.13 µM | IC50 (NCI-N87): > 5 µM

CC(C)(C)n1cccc(C(=O)Nc2ccc(Oc3ccnc4[nH]ccc34)c(F)c2)c1=O
IC50 [1]: 1 µM

O=C(Nc1ccc(Oc2ccnc3[nH]ccc23)c(F)c1)c1cccn(C2CC2)c1=O
IC50 [1]: 1 µM

O=C(Nc1ccc(Oc2ccnc3[nH]ccc23)c(F)c1)c1cccc(-c2ccccc2)n1
IC50 [1]: 0.47 µM

O=C(Nc1ccc(Oc2ccnc3[nH]ccc23)c(F)c1)c1cn(CCO)cc(-c2ccc(F)cc2)c1=O
IC50 [1]: 0.0038 µM | IC50 [2]: 0.28 µM | IC50 (NCI-N87): > 5 µM

O=C(Nc1ccc(Oc2ccnc3[nH]ccc23)c(F)c1)c1cccn(-c2ccc(F)cc2)c1=O
IC50 (NCI-N87): > 5 µM | IC50 [3]: 0.004 µM | IC50 [4]: 0.027 µM | IC50 [5]: 0.61 µM | IC50 [6]: > 1 µM | IC50 [7]: > 30 µM | IC50 [8]: > 30 µM | IC50 [9]: > 5 µM | IC50 (Insulin receptor): > 5 µM | IC50 [10]: > 10 µM | Stability (Liver microsomes): < 0.01 nM/min/mg | Stability [11]: 0.055 nM/min/mg | AUC(0-t) at 24 h [12]: 19.8 µM·h | half-life [13]: 2.5 h | MRT [14]: 3 h | clearance [15]: 9.2 mL/min/kg | Vd [16]: 1.6 L/kg | Cmax [17]: 11.5 µM | Tmax [18]: 0.5 h | AUC(0-t) at 24 h [19]: 50.2 µM·h | half-life [20]: 2.2 h | MRT [21]: 4.5 h | bioavailability [22]: 100% | Activity (Serum [23]): 99.9% | Activity (Serum [24]): 99.4% | minimal effective dose [25]: 12.5 mg/kg | MTD at 336 h [26]: 100 mg/kg | inhibition in vivo at 25 mg/kg [27]: 86% | inhibition in vivo at 50 mg/kg [28]: 110% | IC50 [29]: 0.29 µM | inhibition in vivo at 12.5 mg/kg [30]: 62%

O=C(Nc1ccc(Oc2ccnc3[nH]ccc23)c(F)c1)c1cccn(-c2cccnc2)c1=O
IC50 [1]: 0.07 µM | IC50 [2]: 4 µM | IC50 (NCI-N87): > 5 µM
